This is an account of results in patent publication US5494898A, “Peptide skeletal muscle relaxants” (priority 1994, dated 1996).

The subject of series [1] is neuromuscular junction. In words: Rabbit paw twitch analysis. Type of series: in vivo. The settings on record: for ED90 (dose required to depress twitch tension to 10% of control): anesthetized male New Zealand white rabbits, i.v. marginal ear vein. From the text:
In a large series of similar relaxants, the rabbit dose is typically 125% of that in mice. The mechanism of action was also confirmed in this test by observing train-of-four and tetanus fade, post-tetanic potentiation of single twitches and administration of the anticholinesterase drug neostigmine which reverses the relaxation. Reversibility, rapid onset and short duration are important factors to the anesthesiologist.
The following is a brief description of the methodologies used in rabbits to describe neuromuscular blocking activity of the subject compounds. A more detailed description of these methods is presented in "Microcomputer Use in Measuring Onset, Duration, and Recovery from Non-Depolarizing Skeletal Muscle Relaxants in Rabbits", P.D. Thut et al., Drug development Research 5:182, 1985.
Male New Zealand white rabbits weighing between 2.5 and 3.4 kg were anesthetized with pentobarbital (30 mg/kg) and placed on their backs upon a 40° C. water filled temperature regulation pad. Following tracheostomy, the lungs were mechanically ventilated at 28 breaths per minute with room air, using an open system delivering 200 ml/stroke. This ventilation maintained pCO2 at 38 […] and pO2 at 85 mmHg. Direct arterial blood pressure was measured from the right common carotid artery. The test compounds were administered through a cannula placed in the marginal ear vein. Each foreleg was taped to a cushioned plate held in a femur clamp attached to the spinal board rack. The left central digit of each paw was connected to a force displacement transducer for measurement of muscle tension. Nerve stimulation was provided by pairs of pin electrodes placed on both sides of the ulnar nerve at the elbow of both forearms. The right ulnar nerve was stimulated at 1 Hz, 1 pps for 0.5 msec duration. The left ulnar nerve was similarly stimulated, every 15 seconds, with addition of interspersed trains-of-four and tetanizing stimuli. The parameters reported in Table II are: potency (ED90), which is the dose required to depress twitch tension to 10% of its control value; onset (T85%), which is the time from injection until 85% of the maximal drug effect is achieved; duration, which is the time from injection until the train-of-four has recovered to 75%; blood pressure (BP), which is the percentage change of pre-drug blood pressure; and heart rate (HR), which is the percentage change from pre-drug heart rate.

For series [2], the system named is neuromuscular junction. In words: Mouse inclined screen grip strength test (neuromuscular junction blocking activity). Type of series: in vivo. The settings on record: mice on screen inclined 45°; dose required to inhibit grip strength. On the procedure: The first step, in mice, establishes a preliminary estimate of the potency and efficacy of the compounds. The animals were placed on a screen, inclined 45° to the horizontal. Effective doses caused the mice to lose their grip and slide down the inclined screen. The dose in mg/kg of body weight required to inhibit grip strength in 100% of the mice tested in a dosage group is reported.

Square brackets hold non-standard residues; d marks the D form. Peptide text beside a SMILES is read from it. * marks the point of attachment. dLys(Me3) = C[N+](C)(C)CCCC[C@@H](N)C(=O)O; Boc = CC(C)(C)OC(=O)*

Turning to `COC(=O)[C@@H](CCCC[N+](C)(C)C)NC(=O)[C@@H](Cc1ccccc1)NC(=O)[C@@H](CCCC[N+](C)(C)C)NC(=O)OC(C)(C)C` [Compound B] (Boc-[dLys(Me3)]-[dF]-[dLys(Me3)]-OMe), the “HR (% change from pre-drug heart rate)” value in the series with neuromuscular junction [1] (rabbit, equi-efficacious dose) was found to be 8.79 % change. Also, the “BP (% change of pre-drug blood pressure)” value with neuromuscular junction [1] (rabbit, equi-efficacious dose, carotid arterial pressure) is given as -18.83 % change.

Regarding `COc1ccc(CC2c3cc(OC)c(OC)cc3CC[N+]2(C)CCC(=O)OCCCCCOC(=O)CC[N+]2(C)CCc3cc(OC)c(OC)cc3C2Cc2ccc(OC)c(OC)c2)cc1OC` (stereo not drawn) [atracurium], the “ED90 (dose required to depress twitch tension to 10% of control)” value in the series with neuromuscular junction [1] worked out at 0.05 mg/kg. The “T85% onset (time from injection until 85% of maximal drug effect)” value (“T85% onset” for short) in the series on neuromuscular junction [1] (rabbit, equi-efficacious dose) amounted to 126.90 s. In the series on neuromuscular junction [2], the “Neuromuscular Junction Blocking Activity (ED90), Mouse” value is 0.63 mg/kg.

As to `CC(=O)O[C@H]1C[C@@H]2CC[C@@H]3[C@H](CC[C@@]4(C)[C@H]3C[C@H]([N+]3(C)CCCCC3)[C@@H]4OC(C)=O)[C@@]2(C)C[C@@H]1[N+]1(C)CCCCC1` [pancuronium], the “ED90 (dose required to depress twitch tension to 10% of control)” value with neuromuscular junction [1] turned out to be 0.02 mg/kg. Further, in the series with neuromuscular junction [1] (rabbit, equi-efficacious dose), the “Duration (time from injection until train-of-four recovered to 75%)” value was 35.50 min and the “T85% onset” value came out at 147.50 s.

Consider `CC(=O)O[C@H]1C[C@@H]2CC[C@@H]3[C@H](CC[C@@]4(C)[C@H]3C[C@H]([N+]3(C)CCCCC3)[C@@H]4OC(C)=O)[C@@]2(C)C[C@@H]1N1CCCCC1` [vecuronium], for which the “ED90 (dose required to depress twitch tension to 10% of control)” value in the series with neuromuscular junction [1] was 0.02 mg/kg. Besides, in the series with neuromuscular junction [1] (rabbit, equi-efficacious dose), the “HR (% change from pre-drug heart rate)” value is listed as -9.90 % change and the “T85% onset” value was 97.30 s. Also, the “Neuromuscular Junction Blocking Activity (ED90), Mouse” value in the series with neuromuscular junction [2] came to 0.03 mg/kg.
